Source: patent US12478624B2, “Heterocyclic derivatives, pharmaceutical compositions and their use in the treatment or amelioration of cancer” (Tolremo Therapeutics AG, priority 2019, dated 2025)

Key:
[1] = system: A375 cells; assay: Assay 1: A375 cells treated with S1152, S1008 and compound, immunofluorescence (sc-365823) signal; type: cell-based; conditions: 1 μM S1152 + 0.5 μM S1008, one day
Procedure, shortened: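 A375 cells treated one day with 1 μM S1152, 0.5 μM S1008 and compound dose ranges in DMEM/10% FCS, then fixed, permeabilised and immunostained. Green signal normalised to nuclear counterstain (ethidium-type or DAPI), log ratio fitted by four-parameter regression for EC50.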

[2] = target: T1, CBP Bromodomain (Homo sapiens, UniProt Q92793); assay: Assay 3: CBP bromodomain binding assay (TR-FRET)
T1 construct: purchased Cayman chemicals 600850
Procedure: Assay 3 CBP Bromodomain Binding Assay (TR-FRET)
Compounds solutions of 10 mM in DMSO were pre-diluted in DSMO to 25× stock solutions in DMSO. These were then diluted down to 4× in assay buffer. A dilution series in assay buffer was performed keeping the DMSO concentration stable. 5 μl compound in assay buffer was transferred into the assay plate (provided by assay kit) and the TR-FRET assay Cayman chemicals; 600850) was performed using the manufactor's instructions. After 1 hour incubation at room temperature in the darks, assay plates were read in a Tecan M1000 plate reader or a Tecan Spaks reader using the TR-FRET mode (top read; excitation 340 nm bandwidth […]; emission 620 nm bandwidth […]; gain optimal determined for the first well, number of flashes: 5; flash frequency 100 Hz; integration time: 500 μs, lag time: 100 μs, room temperature). The TR-FRET ratio was calculated by deviding 670 nm emission by 620 nm emission. Values were log transformed and non-linear regression with variable slope (4 parameters) was used to fit values to a dose-response curve to evaluate EC50 values.

[3] = system: OPM-2; assay: Assay 2: multiple myeloma cellular efficacy, PrestoBlue cell proliferation/survival; type: cell-based; conditions: Homo sapiens, 96 h, OPM-2 cells, 4 days
Procedure, shortened: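 Cells seeded at 10000/well and exposed to a compound dose range or vehicle for 4 days, then stained with PrestoBlue for 2 h at 37 °C. Fluorescence was background-subtracted and normalized to vehicle; EC50 came from a four-parameter variable-slope fit against log concentration.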

T1 sequence (Q92793 1085-1192 limits assumed): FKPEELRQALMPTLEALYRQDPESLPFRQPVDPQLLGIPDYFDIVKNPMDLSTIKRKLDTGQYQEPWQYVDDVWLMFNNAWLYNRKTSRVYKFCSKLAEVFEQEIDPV

| SMILES | EC50 [1] [nM] | EC50 [2] [nM] | EC50 [3] [nM] |
| --- | --- | --- | --- |
| CC(=O)N1C[C@H](c2nc(Nc3cc(F)cc(-c4cnn(C)c4)c3)cc(-c3cnccn3)n2)CC[C@@H]1C [Compound 00066, 1-((2S,5R)-5-(4-((3-fluoro-5-(1-methyl-1H-pyrazol-4-yl)phenyl)amino)-6-(pyrazin-2-yl)pyrimidin-2-yl)-2-methylpiperidin-1-yl)ethan-1-one] | < 200 | 1000 to 10000 | < 200 |
| CC(=O)N1C[C@H](c2nc(Nc3cc(F)cc(-c4cn(C)nn4)c3)cc(-c3cnccn3)n2)CC[C@@H]1C [Compound 00069, 1-((2S,5R)-5-(4-((3-fluoro-5-(1-methyl-1H-1,2,3-triazol-4-yl)phenyl)amino)-6-(pyrazin-2-yl)pyrimidin-2-yl)-2-methylpiperidin-1-yl)ethan-1-one] | < 200 | < 200 | < 200 |
| CC(=O)N1C[C@H](c2nc(Nc3cccc(-c4cn(C)nn4)c3)cc(-c3cncc4c3ccn4C)n2)CC[C@@H]1C [Compound 00086, 1-((2S,5R)-2-methyl-5-(4-((3-(1-methyl-1H-1,2,3-triazol-4-yl)phenyl)amino)-6-(1-methyl-1H-pyrrolo[2,3-c]pyridin-4-yl)pyrimidin-2-yl)piperidin-1-yl)ethan-1-one] | < 200 | < 200 | < 200 |
| CC(=O)Nc1cc(F)cc(Nc2cc(-c3cncc4c3ccn4C)nc([C@@H]3CC[C@H](C)N(C(C)=O)C3)n2)c1 [Compound 00092, N-(3-((2-((3R,6S)-1-acetyl-6-methylpiperidin-3-yl)-6-(1-methyl-1H-pyrrolo[2,3-c]pyridin-4-yl)pyrimidin-4-yl)amino)-5-fluorophenyl)acetamide] | < 200 | < 200 | < 200 |
| CC(=O)N1C[C@H](c2nc(Nc3ccnc(C)c3)cc(-c3cncc(C)c3)n2)CC[C@@H]1C [Compound 00103, 1-((2S,5R)-2-methyl-5-(4-(5-methylpyridin-3-yl)-6-((2-methylpyridin-4-yl)amino)pyrimidin-2-yl)piperidin-1-yl)ethan-1-one] | < 200 | < 200 | < 200 |
| CC(=O)N1C[C@H](c2nc(Nc3ccnc(F)c3)cc(-c3cccnc3)n2)CC[C@@H]1C [Compound 00104, 1-((2S,5R)-5-(4-((2-fluoropyridin-4-yl)amino)-6-(pyridin-3-yl)pyrimidin-2-yl)-2-methylpiperidin-1-yl)ethan-1-one] | < 200 | < 200 | < 200 |
| CC(=O)N1C[C@H](c2nc(Nc3ccnc(F)c3)cc(-c3cnccn3)n2)CC[C@@H]1C [Compound 00128, 1-((2S,5R)-5-(4-((2-fluoropyridin-4-yl)amino)-6-(pyrazin-2-yl)pyrimidin-2-yl)-2-methylpiperidin-1-yl)ethan-1-one] | < 200 | < 200 | < 200 |
| CC(=O)N1C[C@H](c2nc(Nc3cc(C)nc(F)c3)cc(-c3cnccn3)n2)CC[C@@H]1C [Compound 00149, 1-((2S,5R)-5-(4-((2-fluoro-6-methylpyridin-4-yl)amino)-6-(pyrazin-2-yl)pyrimidin-2-yl)-2-methylpiperidin-1-yl)ethan1-one] | < 200 | < 200 | < 200 |
| CC(=O)N1C[C@H](c2nc(Nc3cc(C)nc(N4CCOCC4)c3)cc(-c3cnccn3)n2)CC[C@@H]1C [Compound 00152, 1-((2S,5R)-2-methyl-5-(4-((2-methyl-6-morpholinopyridin-4-yl)amino)-6-(pyrazin-2-yl)pyrimidin-2-yl)piperidin-1-yl)ethan-1-one] | < 200 | < 200 | 200 to 1000 |
| CC(=O)N1C[C@H](c2nc(Nc3ccnc(C(C)C)c3)cc(-c3cnccn3)n2)CC[C@@H]1C [Compound 00153, 1-((2S,5R)-5-(4-((2-isopropylpyridin-4-yl)amino)-6-(pyrazin-2-yl)pyrimidin-2-yl)-2-methylpiperidin-1-yl)ethan-1-one] | < 200 | < 200 | 200 to 1000 |
| CC(=O)N1C[C@H](c2nc(Nc3ccnc(-c4cn(C)nn4)c3)cc(-c3cnccn3)n2)CC[C@@H]1C [Compound 00168, 1-((2S,5R)-2-methyl-5-(4-((2-(1-methyl-1H-1,2,3-triazol-4-yl)pyridin-4-yl)amino)-6-(pyrazin-2-yl)pyrimidin-2-yl)piperidin-1-yl)ethan-1-one] | < 200 | < 200 | < 200 |
